In one test the test system is anesthetized dogs. Briefly: Action cardiohemodynamics in anesthetized dogs. The note with it: Canis lupus familiaris, iv, intravenously, read-out: decrease of mean blood pressure; for inhibition in vivo at 0.01 mg/kg: 10 microgram/kg; for inhibition in vivo at 0.001 mg/kg: 1 microgram/kg; for inhibition in vivo at 0.003 mg/kg: 3 microgram/kg. The format is in vivo, Mongrel dogs. The procedure:
2. Action cardiohemodynamics in anesthetized dogs
Mongrel dogs of about 10 kg were anesthetized with the intravenous administration of 20 mg/kg of thiopental sodium. They were then treated by introducing oxygen gas, nitrous oxide gas and enflurane in combination through an endotracheal tube inserted thereinto to conduct artificial respiration and with an Acoma artificial respirator ARF-850E (trademark) and an Acoma anesthesia apparatus EM-A (trademark) to keep the anesthesia still effective. The aortic pressure and the internal pressure of the left ventricle were determined with a micro-tip catheter pressure transducers, MPC-500, tradename of Miller, inserted at the femoral arteries. The renal blood […] was determined by exposing by laparotomy the renal artery to a probe of an electromagnetic blood flowmeter, MFV-2100, tradename of Nihon Kohden Corp. Results are caught with a polygraph system, RM-6000, tradename of Nihon Kohden Corp.
The specimen was dissolved in a 0.9% saline solution and administered at the brachial vein through a catheter inserted thereinto. When the administration was made at the duodenum, the duodenum was exposed by the median incision to a catheter inserted thereinto. Results are shown in terms of an increase in percent of the renal blood flow and a decrease in percent of the mean blood pressure when the test compound was administered.

Test [1] addresses T1, D2 receptor (striatum of rat) (Rattus norvegicus, UniProt P61169).
T1 construct: The striatum of rats were excised, homogenized; from tissue; host or cells: rat striatum, synaptosome fraction
Briefly: specific binding of D2 receptors in the striatum of rat. The following applies: displacement of 3H-Spiperone 0.2 nM, rat striatum synaptosome fraction, 37 degree centigrade, 15 minutes. The procedure: (§1) 1. Test on specific binding of D1 and D2 receptors in the striatum of rat
(§2) The striatum of rats were excised, homogenized with a 0.05M Tris Fuffer and then centrifuged at 20,000×g to collect its synaptosome fraction. The sediment was washed several times with a 0.25M Tris Buffer and suspended in a 0.05M Tris Buffer containing 120 mM of Nacl, 5 mM of KCl, 2 mM of CaCls and 1 mM of MgCl2. The suspension was, in portions, placed in the frozen state at minus 80 degree centigrade. ^3 H-Sch23390 having a final concentration of 0.3 nM in the case of D1 and ^3 H-Spiperone having a finish concentration of 0.2 nM in the case of D2 were added to the portions of the suspension, respectively, together with a specimen. The mixtures were incubased at 37 degree centigrade for 15 minutes. Having been filtrated with a Whatman GF/B filter, they were examined with a liquid scintillation counter.

Test [2] concerns the target T2, D1 receptor (striatum of rat) (Rattus norvegicus, UniProt P18901).
T2 construct: The striatum of rats were excised, homogenized; from tissue; host or cells: rat striatum, synaptosome fraction
Put plainly: specific binding of D1 receptors in the striatum of rat. The note with it: displacement of 3H-Sch23390 0.3 nM, rat striatum synaptosome fraction, 37 degree centigrade, 15 minutes. The procedure:
as §1, §2

Each structure is given as a SMILES string. Counter-ions that a name gives are not always drawn.

T2 sequence (P18901 whole entry): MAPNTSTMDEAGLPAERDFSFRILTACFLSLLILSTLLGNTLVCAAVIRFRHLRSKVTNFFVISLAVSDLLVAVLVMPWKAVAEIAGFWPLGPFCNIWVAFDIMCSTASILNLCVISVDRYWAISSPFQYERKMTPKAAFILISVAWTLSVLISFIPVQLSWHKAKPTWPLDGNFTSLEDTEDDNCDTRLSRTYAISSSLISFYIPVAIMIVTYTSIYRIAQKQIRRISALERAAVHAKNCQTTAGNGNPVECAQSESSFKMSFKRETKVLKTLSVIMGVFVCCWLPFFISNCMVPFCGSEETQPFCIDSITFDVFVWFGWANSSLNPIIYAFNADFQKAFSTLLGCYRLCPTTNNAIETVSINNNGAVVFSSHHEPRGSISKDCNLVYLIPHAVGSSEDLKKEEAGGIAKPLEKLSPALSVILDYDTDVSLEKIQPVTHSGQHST
T1 sequence (P61169 whole entry): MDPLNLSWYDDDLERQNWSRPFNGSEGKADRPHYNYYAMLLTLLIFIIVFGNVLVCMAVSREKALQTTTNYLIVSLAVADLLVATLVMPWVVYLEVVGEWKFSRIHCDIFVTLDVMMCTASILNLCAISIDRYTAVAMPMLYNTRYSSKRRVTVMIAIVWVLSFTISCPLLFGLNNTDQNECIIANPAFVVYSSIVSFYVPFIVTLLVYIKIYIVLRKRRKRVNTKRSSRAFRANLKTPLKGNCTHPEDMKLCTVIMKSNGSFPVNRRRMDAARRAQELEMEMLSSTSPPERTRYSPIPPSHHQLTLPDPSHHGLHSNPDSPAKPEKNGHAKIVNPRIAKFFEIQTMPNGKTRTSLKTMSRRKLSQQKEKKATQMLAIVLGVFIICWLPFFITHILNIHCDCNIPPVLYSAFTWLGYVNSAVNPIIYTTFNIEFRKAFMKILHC

Consider `Cc1ccsc1[C@@H]1CNC[C@H]1c1ccc(O)c(O)c1` (relative stereo) [Compound E, trans-3-(3,4-dihydroxyphenyl)-4-(3-methylthienyl)pyrrolidine hydrobromide], for which the inhibition in vivo at 0.01 mg/kg in the test on anesthetized dogs came to 15%. The IC50 was determined as 90000 nM in test [1] and 170 nM in test [2].
`Oc1ccc([C@@H]2CNC[C@H]2c2ccccc2)cc1O` (relative stereo) [Compound A, trans-3-(3,4-dihydroxyphenyl)-4-phenylpyrrolidine hydrobromide]: the results for the IC50 in test [1] and in test [2] were 88000 nM and 4800 nM, respectively.
As for `Oc1ccc([C@@H]2CNC[C@H]2Cc2cc(F)cc(F)c2O)cc1O` (relative stereo) [Compound K, trans-3-(3,5-difluoro-2-hydroxyphenyl)-methyl-4-(3,4-dihydroxyphenyl)-pyrrolidine], in the test on anesthetized dogs, the inhibition in vivo at 0.001 mg/kg is 17%. For the same compound, the IC50 in test [1] was determined as 2000 nM; in test [2], 130 nM.
For `Cc1ccsc1[C@H]1CNC[C@H]1c1ccc(O)c(O)c1` (relative stereo) [Compound F, cis-3-(3,4-dihydroxyphenyl)-4-(3-methylthienyl)pyrrolidine hydrobromide], the IC50 amounted to 50000 nM in test [1] and 9000 nM in test [2].
As to `Cc1ccccc1[C@@H]1CNC[C@H]1c1ccc(O)c(O)c1` (relative stereo) [Compound B, trans-3-(3,4-dihydroxyphenyl)-4-(2-methylphenyl)pyrrolidine hydrobromide], the inhibition in vivo at 0.01 mg/kg with anesthetized dogs turned out to be 23%. Also, the IC50 is 10000 nM in test [1] and 600 nM in test [2].
Consider `Oc1ccc([C@@H]2CNC[C@H]2Cc2c(O)cccc2O)cc1O` (relative stereo) [Compound I, trans-3-(2,6-dihydroxyphenyl)methyl-4-(3,4-dihydroxyphenyl)pyrrolidine], for which the inhibition in vivo at 0.003 mg/kg in the test on anesthetized dogs is 29%. For the same compound, the IC50 worked out at 70 nM in test [1] and 200 nM in test [2].
For `Oc1ccc([C@@H]2CNC[C@H]2Cc2cccc(F)c2O)cc1O` (relative stereo) [Compound L, trans-3-(3-fluoro-2-hydroxyphenyl)methyl-4-(3,4-dihydroxyphenyl)pyrrolidine], the inhibition in vivo at 0.003 mg/kg in the test on anesthetized dogs came to 21%. Also, the IC50 in test [1] was 5000 nM; in test [2] it was 200 nM.
Turning to `Oc1ccc([C@@H]2CNC[C@H]2c2ccccc2Cl)cc1O` (relative stereo) [Compound C, trans-3-(2-chlorophenyl)-4-(3,4-dihydroxyphenyl)pyrrolidine hydrobromide], the inhibition in vivo at 0.01 mg/kg in the test with anesthetized dogs came out at 21%. Further, the IC50 in test [1] worked out at 7000 nM; in test [2], 600 nM.
Take `Oc1ccc([C@@H]2CNC[C@H]2c2cccc(O)c2Cl)cc1O` (relative stereo) [Compound D, trans-3-(2-chloro-3-hydroxyphenyl)-4-(3,4-dihydroxyphenyl)pyrrolidine hydrobromide]: in the test on anesthetized dogs, the inhibition in vivo at 0.003 mg/kg amounted to 15%. In addition, the IC50 in test [1] amounted to 5300 nM; in test [2] it was 380 nM.
Taken in the same sequence, the figures for `Oc1ccc([C@@H]2CNC[C@H]2Cc2cc(Cl)ccc2O)cc1O` (relative stereo) [Compound H, trans-3-(3-chloro-6-hydroxyphenyl)-methyl-4-(3,4-dihydroxyphenyl)-pyrrolidine] were 15%, 300 nM and 300 nM.
With `Oc1ccc([C@@H]2CNC[C@H]2c2cccc3ccsc23)cc1O` (relative stereo) [Compound G, trans-3-(7-benzothiophenyl)-4-(3,4-dihydroxyphenyl)pyrrolidine hydrobromide], the results for the concentration for half-maximal inhibition (IC50) in test [1] and in test [2] were 6000 nM and 400 nM, respectively.
As for `Oc1ccc([C@@H]2CNC[C@H]2Cc2c(O)ccc(Cl)c2O)cc1O` (relative stereo) [Compound J, trans-3-(3-chloro-2,6-dihydroxyphenyl)-methyl-4-(3,4-dihydroxyphenyl)-pyrrolidine], in the test with anesthetized dogs, the inhibition in vivo at 0.001 mg/kg was found to be 22%. Also, the IC50 in test [1] is 1000 nM; in test [2], 130 nM.

The values are drawn from patent US5444083A, “Pyrrolidine compound and pharmaceutical use” (Eisai Co., Ltd., priority 1989, dated 1995).
